Reference: the pKa sets of Baltruschat and Czodrowski (2020)

Settings: basic group

With CC(C)(N)C(C)(C)[NH3+] as the compound, how does the pKa read?
The pKa was 6.56.

Which pKa does the source give for O=[N+]([O-])c1ccncc1 here?
Its pKa is 1.86.

For [S-]c1ccncn1, which pKa is on record?
The pKa was 6.7.

For Cc1cnc2c(cc(C)c3c(C)ccnc32)c1C, which pKa is on record?
The pKa was 6.45.

Which pKa does the source give for CC(=O)n1ccnc1Cc1ncc[nH]1 here?
The pKa was 6.6.

For CNC[C@H](O)c1cccc(O)c1, which pKa is on record?
Its pKa is 8.77.

With CC(C)N(c1ccccc1)C(C)C as the compound, how does the pKa read?
The pKa was 6.19.

With N#CCC(=O)NN as the compound, how does the pKa read?
Its pKa is 2.34.

For Oc1onc2c1CCN(Cc1ccccc1)CC2, which pKa is on record?
Its pKa is 8.

Which pKa does the source give for Cc1[nH]cnc1CSCCNC(=N)NCCCc1c[nH]cn1 here?
Its pKa is 11.6.

Which pKa does the source give for N#CC(C#N)=NNc1ccccc1[N+](=O)[O-] here?
The pKa was -0.76.

Which pKa does the source give for COc1ccc(S(=O)(=O)NCCN2CCOCC2)c(OC)c1OC here?
Its pKa is 6.16.

For C1CCN(CCN2CCCCC2)CC1, which pKa is on record?
The pKa was 9.43.

Which pKa does the source give for CCN(CC)CCBr here?
Its pKa is 7.

With Nc1ccc(S(=O)(=O)Nc2cccnn2)cc1 as the compound, how does the pKa read?
Its pKa is 1.3.

With O=[N+]([O-])c1ccc(Nc2ccccc2)cc1 as the compound, how does the pKa read?
Its pKa is -2.5.

For [S-]c1cccc2cccnc12, which pKa is on record?
Its pKa is 8.29.

Which pKa does the source give for CN(C)C here?
The pKa was 9.96.

For Cc1ccc2c(c1)ncn2[C@H]1OC[C@H](O)[C@@H](O)[C@@H]1O, which pKa is on record?
The pKa was 4.17.

Which pKa does the source give for [S-]c1ncnc2ncncc12 here?
The pKa was 6.23.

For NCC(=O)O, which pKa is on record?
The pKa was 9.67.

For CCCCNCCCCCCNCCCC, which pKa is on record?
The pKa was 11.3.

With NC(=O)CCc1ccccn1 as the compound, how does the pKa read?
Its pKa is 5.09.

With COc1ccc(C[C@H](C)N)cc1OC as the compound, how does the pKa read?
The pKa was 9.6.

Which pKa does the source give for CC(O)CNC(C)(C)C (centres undefined) here?
Its pKa is 10.

Which pKa does the source give for OCCCc1cccnc1 here?
Its pKa is 5.57.

Which pKa does the source give for CCOc1ccc(/N=C/N(C)C)cc1 here?
Its pKa is 9.24.

With CN1CCCN1C as the compound, how does the pKa read?
Its pKa is 6.67.

Which pKa does the source give for CC(C)[C@H](N)C(=O)[O-] here?
The pKa was 9.66.

For CNC(N)=O, which pKa is on record?
Its pKa is 0.8.

With CSc1nc(C)cc(=O)n1C as the compound, how does the pKa read?
The pKa was 0.9.

For Cc1ccccc1C(=NCCC[NH+](C)C)c1ccccc1C, which pKa is on record?
The pKa was 4.3.

For [O-]c1c(Cl)cc(Cl)c(Cl)c1CN1CCCCC1, which pKa is on record?
Its pKa is 10.3.

Which pKa does the source give for CC[NH+](CCO)c1ccc(N)cc1 here?
The pKa was 3.04.

For CC(C)N(C)C, which pKa is on record?
Its pKa is 10.3.

With CCCCCCCCCCCCCCCCN(CC(O)CC)CC(O)CC (centres undefined) as the compound, how does the pKa read?
Its pKa is 5.6.

For NNC(=O)[C@H](Cc1c[nH]c[nH+]1)NC(=O)OCc1ccccc1, which pKa is on record?
The pKa was 2.5.

Which pKa does the source give for COc1ccc2[nH]cc(CC(C)N)c2c1 (centres undefined) here?
The pKa was 10.3.

For COc1cc(C#N)cc(C(=O)N[C@@H]2C[C@H]3CC[C@@H](C2)N3Cc2ccccc2)c1OC, which pKa is on record?
Its pKa is 8.7.

Which pKa does the source give for COC(=O)[C@@H]1[C@H](O)C[C@@H]2CC[C@H]1N2C here?
Its pKa is 8.85.

With NCC[NH2+]CCc1ccccc1 as the compound, how does the pKa read?
Its pKa is 6.59.

For Cc1cccc(Cl)c1/C(=N/CCCN(C)C)c1ccccc1, which pKa is on record?
The pKa was 8.8.

Which pKa does the source give for COC(=O)CCCc1c[nH]cn1 here?
The pKa was 7.33.

Which pKa does the source give for COc1ccc(C2CN2)cc1 (centres undefined) here?
Its pKa is 8.7.

With CCN(c1ccccc1)C(C)(C)C as the compound, how does the pKa read?
The pKa was 8.02.

With Brc1ccc2c(c1)CCN2 as the compound, how does the pKa read?
Its pKa is 3.7.

For COc1ccc(NCO)cc1, which pKa is on record?
Its pKa is 3.72.

With Cc1[nH]c2ccc(N)cc2[nH+]1 as the compound, how does the pKa read?
Its pKa is 3.12.

For CN(C)c1ccc2cc3ccc(N(C)C)cc3nc2c1, which pKa is on record?
The pKa was 10.4.

For Nc1nc(N)c2cnn(-c3ccccc3)c2n1, which pKa is on record?
Its pKa is 4.49.

Which pKa does the source give for CN(C1=NCCO1)c1ccccc1 here?
Its pKa is 8.51.

Which pKa does the source give for O=C1CCC[C@H]2[C@H]3C[C@@H](CN12)[C@H]1CCCCN1C3 here?
The pKa was 9.2.

For Nc1ccccc1N, which pKa is on record?
The pKa was 4.43.

Which pKa does the source give for O=[N+]([O-])c1ccc2[nH]c(CO)nc2c1 here?
Its pKa is 2.21.

For CC(Br)(CN)[N+](=O)[O-] (centres undefined), which pKa is on record?
Its pKa is 6.15.

For NCCSCC[NH3+], which pKa is on record?
The pKa was 8.84.

For CCC(N)CCCl (centres undefined), which pKa is on record?
Its pKa is 8.53.

For CNCCN, which pKa is on record?
The pKa was 10.4.

Which pKa does the source give for C/C(N)=N/O here?
Its pKa is 5.9.

With CCc1ccc(/N=N/c2ccc(N(C)C)cc2)cc1CC as the compound, how does the pKa read?
The pKa was 2.58.

For CN(C)C1CC(C)(C)NC(C)(C)C1, which pKa is on record?
The pKa was 10.6.

With C[n+]1c(NN)ccc2ccccc21 as the compound, how does the pKa read?
The pKa was 2.66.

With CCCCNc1nnc(-c2ccccc2)cc1C as the compound, how does the pKa read?
The pKa was 6.1.

Which pKa does the source give for CSc1ccnc2ccccc12 here?
The pKa was 5.81.

For Nc1nc(C(F)(F)F)c2[nH]cnc2n1, which pKa is on record?
Its pKa is 1.85.

With Nc1nc([O-])c2nc[nH]c2n1 as the compound, how does the pKa read?
Its pKa is 9.3.

For CC(=O)C(CCN1CCOCC1)(c1ccccc1)c1ccccc1, which pKa is on record?
Its pKa is 6.83.

For Cc1c[nH]c(C)c1C, which pKa is on record?
Its pKa is 3.94.

Which pKa does the source give for Cn1cc[nH+]c1-c1ccccn1 here?
Its pKa is 0.4.

Which pKa does the source give for O=C([O-])c1ccncc1 here?
Its pKa is 4.9.

With COC(=O)c1nc2cc(Cl)ccc2[nH]1 as the compound, how does the pKa read?
Its pKa is 0.3.

With COCCN(CCOC)c1ccccc1 as the compound, how does the pKa read?
Its pKa is 4.11.

With CCSC(=O)c1ccc(C)cc1 as the compound, how does the pKa read?
The pKa was -4.2.

For CN(C)Cc1ccccc1O, which pKa is on record?
Its pKa is 8.6.

With Cn1ccc(=O)c2ccccc21 as the compound, how does the pKa read?
The pKa was 2.36.

For O=C1[C@H]2C[C@H](CN3CCCC[C@@H]23)C2=CCCCN12, which pKa is on record?
The pKa was 7.7.

With NNC(=O)[C@H](Cc1c[nH]cn1)NC(=O)OCc1ccccc1 as the compound, how does the pKa read?
The pKa was 6.1.

With CCCN1CC(O[Si](C)(C)C)C1 as the compound, how does the pKa read?
Its pKa is 8.89.

For CCOC(=O)c1cc(-c2ccccc2)nnc1NCCN1CCOCC1, which pKa is on record?
The pKa was 6.67.

For Nc1cncnc1N, which pKa is on record?
Its pKa is 6.03.

Which pKa does the source give for CN(C)C(C)(C)C here?
Its pKa is 10.5.

With Cc1cc2nc[nH]c2cc1C as the compound, how does the pKa read?
The pKa was 6.04.

For CC[NH+](CC)CCC(C)Nc1c2ccc(Cl)cc2nc2ccc(OC)cc12 (centres undefined), which pKa is on record?
The pKa was 7.2.

Which pKa does the source give for Cn1c(=O)c2c([O-])cnnc2n(C)c1=O here?
Its pKa is 8.51.

Which pKa does the source give for CCOc1cccc(N)c1 here?
The pKa was 4.15.

Which pKa does the source give for NCC(=O)c1ccc(O)cc1 here?
Its pKa is 8.05.

With Cn1ccc2ccc3cccnc3c21 as the compound, how does the pKa read?
Its pKa is 4.36.

For NCCCCc1ccccc1, which pKa is on record?
The pKa was 10.4.

Which pKa does the source give for CCN(CC)CC1CO1 (centres undefined) here?
The pKa was 8.55.
